Paper PMC7332671 (Acta Pharmaceutica Sinica. B, 2020)
Like-named read-outs stand apart in the source and are kept apart here.

Assays:
Assay in all cases: SPR
Type in all cases: binding
P53 [1] = target: T1, P53 (Homo sapiens, UniProt P04637)
P53 [2] = target: T1, P53; remark: listed apart in the source
P53 [3] = target: T1, P53; remark: listed apart in the source

T1 sequence (P04637 94-312): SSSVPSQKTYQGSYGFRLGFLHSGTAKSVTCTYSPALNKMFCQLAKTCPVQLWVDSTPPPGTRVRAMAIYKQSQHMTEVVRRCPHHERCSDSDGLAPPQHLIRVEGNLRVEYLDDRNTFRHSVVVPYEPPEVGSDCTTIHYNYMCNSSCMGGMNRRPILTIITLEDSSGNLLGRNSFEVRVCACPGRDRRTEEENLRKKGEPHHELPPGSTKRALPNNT

Molecule	Kd (P53 [1]) [µM]	also measured
20(S)-Ro	10.2	–
CC(C)=CCC[C@](C)(O)[C@H]1CC[C@]2(C)[C@@H]1[C@H](O)C[C@@H]1[C@@]3(C)CC[C@H](O)C(C)(C)[C@@H]3CC[C@]12C [20(S)-PPD]	41.1	–
CC(C)=CCC[C@](C)(O)[C@H]1CC[C@]2(C)[C@@H]1[C@H](O)C[C@@H]1[C@@]3(C)CC[C@H](O)C(C)(C)[C@@H]3[C@@H](O)C[C@]12C [(S)-PPT, 20(S)-Protopanaxatriol]	–	Kd (P53 [2]): 6.63 µM
CCn1c2ccccc2c2cc(CNC)ccc21 [PhiKan083]	–	Kd (P53 [3]): 122 µM
